Data taken from article PMC10287566, “Signaling-specific inhibition of the CB1 receptor for cannabis use disorder: phase 1 and phase 2a randomized trials” (Nature Medicine, 2023).

Key:
[1] = tested on: volunteers with CUD; test: Phase 2a study, cannabis self-administration; format: in vivo, human
Procedure: Participants, in groups of 3−4, completed two 5-d inpatient periods (first period ‘A’ and second period ‘B’) separated by a ≥ 14-d outpatient washout. During the two testing periods, participants received AEF0117 or matching placebo in counterbalanced order (two dosing sequences: AEF0117 first or placebo first). Participants took capsules at 9:00 each day and then smoked a controlled amount of cannabis (approximately 67 mg of THC smoked over 6 min) 3.5 h later (12:30). Ratings of the subjective effects of cannabis were done five times after cannabis administration (20 min, 40 min, 60 min, 90 min and 120 min after cannabis) using a VAS (0–100 mm). […] Participants were told that the cannabis strength could vary from day to day and between participants but that the cannabis they each received at 12:30 that day was the strength available for self-administration that day.
On study days 2–5, beginning at 14:30, participants were given the option to self-administer individual puffs of cannabis (up to six puffs per timepoint) every 2 h until 20:30 (maximum of 24 puffs per day). Fifteen minutes before each self-administration opportunity, participants indicated the number of puffs they chose to purchase ($2 per puff), and they would pay for it (using faux money that was then subtracted from their study stipend) before receiving their individual ashtray, cannabis cigarette and lighter.

[2] = molecular target: human CB1 (Homo sapiens, UniProt P21554); test: THC-induced decrease in cAMP in CHO-hCB1 cells; format: cell-based; set-up: host or cells: CHO-K1
Procedure: CHO cells stably expressing the human CB1 receptor (CHO-hCB1) were used in these experiments (ES-110C, PerkinElmer).
CHO-hCB1 cells were treated by concomitantly adding THC and the test compound for 45 min. Forskolin (2.5 µM) was also simultaneously added in all the conditions tested to sustain cAMP basal level. At the end of the treatment, cells were lysed for cAMP quantification. All measures were performed in triplicate in one experiment.
The quantitative determination of cAMP was done using a competitive fluorescence immunoassay. Data were expressed as % of Δ fluorescence (ΔF) that was calculated as follows: ΔF% = (sample fluorescence − negative control fluorescence) / negative control fluorescence. These experiments were done by the CRO Fluofarma.

[3] = tested on: volunteers with CUD; test: Phase 2a study, plasma steroids, endocannabinoids, THC and metabolites; format: in vivo, human
Procedure: THC and its metabolites (11-OH-THC and 11-COOH-THC) were assessed at the same timepoints. […] THC and its metabolites analyses were performed using PD dataset (n = 13 for both doses).
PK parameters for AEF0117 were subject to descriptive statistics separately for each treatment group.
ALLO, DHEA, PREG and TESTO, as well as AEA and 2-AG, were measured. Data were analyzed using a global crossover MRMM analysis on the PD dataset (n = 13 per dose cohort).

[4] = MAD study, plasma pharmacokinetics; format: in vivo, human; settings: for Cmax / Tmax / half-life: human, plasma, oral; for Cmax: read-out: Cmax, mean (±SD); for Tmax: read-out: tmax, median (range)
Procedure: Samples were collected at the same timepoints on day 1 and day 7: before dose and 0.5, 1, 1.5, 2, 3, 4, 6, 8 and 12 h after dose. Additional samples were collected on day 2 to day 6 before dose (that is, 24 h from the previous dose) and on days […] (that is, 24, 48, 72, 96, 120, 144, 168, 216 and 264 h after the last dose at day 7).
(§1) For both SAD and MAD studies, the PK parameters were calculated using standard non-compartmental methods for those with sufficient plasma concentration data.

[5] = tested on: mice; test: THC-induced increase in food intake (fasting-refeeding); format: in vivo
[6] = tested on: healthy volunteers; format: in vivo, human; settings: MAD
Procedure: Participants were admitted to the research clinic at midday before dosing (day −1). In the SAD study, they remained in-house until day 8 for PK and PD samples and safety assessments. In the MAD study, participants remained in-house until day 14 and returned to the research facility on an outpatient basis to have PK and safety assessments at 216 h and 264 h (day 16 and day 18) after their last dose (day 7). Safety monitoring (physical examinations, vital sign measurements, 12-lead ECGs, clinical safety laboratory tests and AE monitoring) were performed throughout the studies. Psychometrics tests (Bond & Lader VAS, Addiction Research Center Inventory (49-item short form) (ARCI-49) and Profile of Mood States 65 self-report items (POMS-65)) and the Columbia-Suicide Severity Rating Scale (C-SSRS) test were performed at baseline, before dose and at 4 h and 24 h after dose on day 1 and day 7 (MAD study, only) and C-SSRS only at 24 h.

[7] = SAD study, plasma pharmacokinetics; format: in vivo; settings: human, oral; for Cmax: read-out: Cmax, mean (±SD); for half-life: SAD, evaluated 0-144 h, underestimated, read-out: t½, min-max
Procedure: as §1

[8] = tested on: squirrel monkeys; test: THC-induced reinstatement of THC seeking in squirrel monkeys; format: in vivo, Saimiri sciureus
Excerpt: Two experimental models were used: (1) THC i.v. self-administration and (2) THC-induced reinstatement of THC seeking. These two approaches were used to model the maintenance of daily cannabis use and cannabis seeking after a period of abstinence.
For the THC-induced reinstatement of THC seeking, the monkeys underwent daily extinction sessions during which lever presses led to vehicle infusions and the visual cues previously paired with THC infusions but not THC. […] THC injections were given immediately before the start of the test sessions. During testing, lever presses (FR10) continued to produce only vehicle injections and the THC-paired cues. […] Recommendations from the Guide for the Care and Use of Laboratory Animals (8th edition) and guidelines of the Institutional Animal Care and Use Committee of the Intramural Research Program, NIDA, NIH, DHHS, were followed. Animals were maintained in facilities fully accredited by the AAALAC. Operation of the experimental chambers and data collection were controlled by IBM computers using the MED Associates MED-PC software package.

[9] = molecular target: T1, endogenous mouse CB1 (Mus musculus, UniProt P47746); test: THC-induced p-ERK1/2 in STHdhQ7/Q7 cells; format: cell-based; settings: STHdhQ7/Q7, THC 10 µM; read-out: IC50, inhibition of THC-induced p-ERK1/2
T1 construct: a striatum-derived cell line that endogenously express murine CB1; host or cells: STHdhQ7/Q7

[10] = tested on: AR (androgen receptor); test: Eurofins binding screen; settings: 10 µM
[11] = 91-d repeated oral toxicity study in rats (GLP); format: in vivo; settings: both sexes, Sprague Dawley SPF, rat, in vivo, rats
[12] = 0.6 mg/day, MAD Day 1, 0.6 mg/day
[13] = 0.6 mg/day, MAD Day 7, 0.6 mg/day
[14] = Reinstatement of THC self-administration

T1 sequence (P47746 whole entry): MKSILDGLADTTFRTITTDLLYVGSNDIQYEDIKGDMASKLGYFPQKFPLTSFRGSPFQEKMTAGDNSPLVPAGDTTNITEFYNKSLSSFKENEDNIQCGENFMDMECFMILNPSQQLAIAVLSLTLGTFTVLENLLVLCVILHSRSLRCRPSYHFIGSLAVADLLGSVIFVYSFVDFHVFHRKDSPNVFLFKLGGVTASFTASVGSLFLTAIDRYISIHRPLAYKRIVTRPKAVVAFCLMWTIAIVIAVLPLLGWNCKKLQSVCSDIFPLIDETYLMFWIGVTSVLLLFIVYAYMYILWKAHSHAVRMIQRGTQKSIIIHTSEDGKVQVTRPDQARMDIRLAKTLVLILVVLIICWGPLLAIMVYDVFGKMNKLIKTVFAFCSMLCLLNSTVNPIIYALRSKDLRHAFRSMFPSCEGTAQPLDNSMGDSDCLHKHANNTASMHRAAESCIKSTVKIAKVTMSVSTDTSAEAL
Sequence of human CB1 (P21554 whole entry): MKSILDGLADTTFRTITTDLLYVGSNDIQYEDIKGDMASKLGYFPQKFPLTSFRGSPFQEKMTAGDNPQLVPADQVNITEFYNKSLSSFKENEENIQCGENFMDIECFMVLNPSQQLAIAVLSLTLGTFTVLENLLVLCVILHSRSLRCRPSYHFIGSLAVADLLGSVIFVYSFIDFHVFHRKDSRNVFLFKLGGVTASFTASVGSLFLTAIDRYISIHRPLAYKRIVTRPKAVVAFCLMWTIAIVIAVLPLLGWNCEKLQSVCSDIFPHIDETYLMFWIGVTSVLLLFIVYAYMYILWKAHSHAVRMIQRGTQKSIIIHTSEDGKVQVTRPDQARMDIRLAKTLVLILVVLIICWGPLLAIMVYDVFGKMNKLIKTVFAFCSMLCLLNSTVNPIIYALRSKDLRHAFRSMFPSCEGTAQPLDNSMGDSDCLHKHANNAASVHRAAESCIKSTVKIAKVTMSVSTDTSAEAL

COc1ccc(CO[C@H]2CC[C@@]3(C)C(=CC[C@H]4[C@@H]5CC[C@H](C(C)=O)[C@@]5(C)CC[C@@H]43)C2)cc1 [AEF0117, 3β-(4-methoxybenzyloxy)pregn-5-en-20-one]
cannabis self-administration ([1]; 1 mg, global crossover analysis): reduced
number of individuals choosing to self-administer cannabis ([1]; Treatment or Treatment x Dose, McNemar's test): no significant effect
effect on THC's effects on cAMP [2]: without modifying
plasma THC and its metabolites, AEF0117 vs placebo periods [3]: no statistically significant differences
concentration at 264 h as share of Cmax at Day 7 ([4]; MAD, all doses): 4%
Cmax [4, 12]: 0.0046 ± 0.0014 µg/mL
Tmax [4, 12]: 3 h
half-life ([4]; 0.6 mg/day, MAD Day 7, 0.6 mg/day, 0-264 h, read-out: t½, min-max): 153 to 252 h
Cmax [4, 13]: 0.0033 ± 0.0003 µg/mL
Tmax [4, 13]: 3 h
Cmax ([4]; 2 mg/day, MAD Day 1, 2 mg/day): 0.0116 ± 0.0037 µg/mL
Tmax ([4]; 2 mg/day, MAD Day 1, 2 mg/day): 3 h
half-life ([4]; 2 mg/day, MAD Day 7, 2 mg/day, 0-264 h, read-out: t½, min-max): 152 to 240 h
Cmax ([4]; 2 mg/day, MAD Day 7, 2 mg/day): 0.0145 ± 0.0049 µg/mL
Tmax ([4]; 2 mg/day, MAD Day 7, 2 mg/day): 3 h
Cmax ([4]; 6 mg/day, MAD Day 1, 6 mg/day): 0.0359 ± 0.0135 µg/mL
Tmax ([4]; 6 mg/day, MAD Day 1, 6 mg/day): 3.5 h
half-life ([4]; 6 mg/day, MAD Day 7, 6 mg/day, 0-264 h, read-out: t½, min-max): 160 to 258 h
Cmax ([4]; 6 mg/day, MAD Day 7, 6 mg/day): 0.0371 ± 0.0073 µg/mL
Tmax ([4]; 6 mg/day, MAD Day 7, 6 mg/day): 2.5 h
half-life ([4]; humans, MAD study, range between participants, read-out: terminal half-life): 152 to 259 h
THC's effects on food intake [5]: inhibited
% Inhibition ([5]; Increase in food intake): 100%
ID50 ([5]; Increase in food intake): 0.015 mg/kg
ID100 ([5]; Increase in food intake): 0.05 mg/kg
ARCI 49 sub-scores ([6]; 0.6-6 mg vs placebo): No relevant trend
Bond and Lader VAS (alertness, contentedness, calmness) ([6]; 0.6-6 mg vs placebo): No relevant differences between groups
POMS 65 derived sub-scores ([6]; 0.6-6 mg vs placebo, except one outlier participant): no dose related trend
C-SSRS: number of subjects with suicidal ideation or behavior ([6]; all doses 0.6-6 mg, Day 1 and Day 8): 0 n (%)
Cmax ([7]; both sexes, SAD Day 1, 2 mg): 0.0147 ± 0.0043 µg/mL
Tmax ([7]; both sexes, SAD Day 1, 2 mg, read-out: tmax, median (range)): 3 h
half-life ([7]; both sexes, 0.6 mg): 75.9 to 229 h
Tmax ([7]; healthy volunteers, read-out: Tmax): ~3 h
Cmax ([7]; SAD Day 1, 0.2 mg): 0.0013 ± 0.0003 µg/mL
Tmax ([7]; SAD Day 1, 0.2 mg, read-out: tmax, median (range)): 3 h
Cmax ([7]; SAD Day 1, 0.6 mg): 0.0035 ± 0.001 µg/mL
Tmax ([7]; SAD Day 1, 0.6 mg, read-out: tmax, median (range)): 2.5 h
Cmax ([7]; SAD Day 1, 6 mg): 0.0386 ± 0.0081 µg/mL
Tmax ([7]; SAD Day 1, 6 mg, read-out: tmax, median (range)): 2 h
half-life ([7]; 2 mg): 84.4 to 180 h
half-life ([7]; 6 mg): 69.3 to 162 h
Tmax ([7]; healthy volunteers, SAD and MAD, read-out: median tmax): 2 to 3 h
reinstatement of THC seeking ([8]; 1.5 µg kg^−1 oral): significantly reduced
% Inhibition [8, 14]: 80%
ID100 [8, 14]: ≤ 0.0015 mg/kg
IC50 [9]: 0.3 µM
Percent inhibition of control specific binding [10]: 20%
NOAEL at 91 day ([11]; oral, 91-day, highest dose tested): 65 mg/kg/day
NOAEL at 91 d ([11]; 91-d repeated oral): > 65 mg/kg/day
